Assay results: patent publication US11857519B2, “Compounds and methods for the targeted degradation of enhancer of zeste homolog 2 polypeptide” (Arvinas Operations, Inc., priority 2016, dated 2024)

Target: T1, EZH2 (Homo sapiens, UniProt Q15910)
T1 construct: Protocol of the Cellular Assay of Target Protein Degradation (VCaP Cells, ELISA); endogenous in cells; host or cells: VCaP cells
Test: Cellular assay of target protein degradation (VCaP cells, ELISA)
Type: cell-based
Conditions: 4 hours, protein degradation range at indicated concentration (relative to DMSO control)
Summary of the method: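 EZH2 level measured by sandwich ELISA (TMB, A450 minus A562 background) in lysates of VCaP cells. Cells had been cultured at least 3 days in 5% CSS RPMI before 4 h compound exposure in 0.1% DMSO.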

T1 sequence (Q15910 whole entry): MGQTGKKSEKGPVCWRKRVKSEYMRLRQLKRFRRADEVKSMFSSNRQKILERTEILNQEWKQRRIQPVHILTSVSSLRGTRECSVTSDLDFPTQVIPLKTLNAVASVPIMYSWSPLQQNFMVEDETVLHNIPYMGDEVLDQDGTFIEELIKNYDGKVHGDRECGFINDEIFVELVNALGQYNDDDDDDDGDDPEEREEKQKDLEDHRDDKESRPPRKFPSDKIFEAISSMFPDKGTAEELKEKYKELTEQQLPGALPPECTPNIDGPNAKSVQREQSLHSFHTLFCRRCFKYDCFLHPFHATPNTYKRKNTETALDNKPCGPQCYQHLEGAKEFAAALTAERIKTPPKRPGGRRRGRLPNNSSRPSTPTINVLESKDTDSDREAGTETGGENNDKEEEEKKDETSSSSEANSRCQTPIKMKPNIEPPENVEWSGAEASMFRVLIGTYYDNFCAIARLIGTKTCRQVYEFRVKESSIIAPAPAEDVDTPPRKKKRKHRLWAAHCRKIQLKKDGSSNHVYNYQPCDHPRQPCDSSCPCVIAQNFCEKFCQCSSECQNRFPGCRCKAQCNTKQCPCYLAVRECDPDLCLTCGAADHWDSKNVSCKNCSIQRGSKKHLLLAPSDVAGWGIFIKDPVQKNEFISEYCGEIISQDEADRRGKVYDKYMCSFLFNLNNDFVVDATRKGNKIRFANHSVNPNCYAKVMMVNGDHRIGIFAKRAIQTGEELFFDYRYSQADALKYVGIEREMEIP
T1 sequence (O75530 whole entry partner): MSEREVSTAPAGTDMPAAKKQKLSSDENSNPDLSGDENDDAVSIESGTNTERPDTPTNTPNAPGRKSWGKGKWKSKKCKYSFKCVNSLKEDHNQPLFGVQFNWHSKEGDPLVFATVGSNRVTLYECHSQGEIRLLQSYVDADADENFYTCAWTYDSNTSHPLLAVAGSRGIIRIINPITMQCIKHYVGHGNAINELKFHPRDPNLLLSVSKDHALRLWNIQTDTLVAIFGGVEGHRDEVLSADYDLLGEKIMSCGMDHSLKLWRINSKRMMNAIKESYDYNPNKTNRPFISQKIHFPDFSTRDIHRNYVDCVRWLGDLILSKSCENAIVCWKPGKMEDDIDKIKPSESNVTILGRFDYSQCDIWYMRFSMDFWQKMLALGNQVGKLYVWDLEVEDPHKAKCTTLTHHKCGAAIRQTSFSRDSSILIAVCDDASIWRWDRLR
T1 sequence (Q15022 whole entry partner): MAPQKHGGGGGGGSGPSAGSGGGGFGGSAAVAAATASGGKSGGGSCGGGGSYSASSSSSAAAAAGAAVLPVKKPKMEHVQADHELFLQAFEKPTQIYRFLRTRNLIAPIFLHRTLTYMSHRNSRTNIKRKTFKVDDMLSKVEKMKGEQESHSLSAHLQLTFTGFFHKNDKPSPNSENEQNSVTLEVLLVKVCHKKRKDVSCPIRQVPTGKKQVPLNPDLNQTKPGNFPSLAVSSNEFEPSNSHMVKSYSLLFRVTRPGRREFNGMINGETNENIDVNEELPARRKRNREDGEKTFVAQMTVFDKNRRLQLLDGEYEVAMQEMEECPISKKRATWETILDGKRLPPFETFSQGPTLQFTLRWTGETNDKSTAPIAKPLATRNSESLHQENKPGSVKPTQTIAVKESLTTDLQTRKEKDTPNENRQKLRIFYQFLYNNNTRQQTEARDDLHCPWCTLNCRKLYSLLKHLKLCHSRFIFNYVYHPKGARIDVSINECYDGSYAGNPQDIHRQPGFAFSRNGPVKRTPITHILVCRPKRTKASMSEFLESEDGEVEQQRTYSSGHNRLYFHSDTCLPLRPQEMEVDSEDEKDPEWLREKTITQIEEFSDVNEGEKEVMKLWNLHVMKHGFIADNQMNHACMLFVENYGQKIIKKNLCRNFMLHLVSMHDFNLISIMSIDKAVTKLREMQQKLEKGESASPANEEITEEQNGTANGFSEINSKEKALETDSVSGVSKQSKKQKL

Row | Compound | percent target protein degradation class
1 | CCN(c1cc(-c2ccc(CN3CCN(CCOCCOCC(=O)N[C@H](C(=O)N4C[C@H](O)C[C@H]4C(=O)N[C@@H](C)c4ccc(-c5scnc5C)cc4)C(C)(C)C)CC3)cc2)cc(C(=O)NCc2c(C)cc(C)[nH]c2=O)c1C)C1CCOCC1 [Compound 114, (2S,4R)-1-((S)-2-(2-(2-(2-(4-((3′-(((4,6-dimethyl-2-oxo-1,2-dihydropyridin-3-yl)methyl)carbamoyl)-5′-(ethyl(tetrahydro-2H-pyran-4-yl)amino)-4′-methyl-[1,1′-biphenyl]-4-yl)methyl)piperazin-1-yl)ethoxy)ethoxy)acetamido)-3,3-dimethylbutanoyl)-4-hydroxy-N-((S)-1-(4-(4-methylthiazol-5-yl)phenyl)ethyl)pyrrolidine-2-carboxamide] | A (A = degradation more than 60%)
2 | CCN(c1cc(-c2ccc(CN3CCC(CN4CCN(c5ccc6c(c5)C(=O)N(C5CCC(=O)NC5=O)C6=O)CC4)CC3)cc2)cc(C(=O)NCc2c(C)cc(C)[nH]c2=O)c1C)C1CCOCC1 (centres unmarked) [Compound 115, N-((4,6-dimethyl-2-oxo-1,2-dihydiopyridin-3-yl)methyl)-4′-((4-((4-(2-(2,6-dioxopiperidin-3-yl)-1,3-dioxoisoindolin-5-yl)piperazin-1-yl)methyl)piperidin-1-yl)methyl)-5-(ethyl(tetrahydro-2H-pyran-4-yl)amino)-4-methyl-[1,1′-biphenyl]-3-carboxamide] | B (B = degradation between 30% and 60%)
3 | CCN(c1cc(-c2ccc(CN3CCN(CCOCC(=O)N[C@H](C(=O)N4C[C@H](O)C[C@H]4C(=O)N[C@@H](C)c4ccc(-c5scnc5C)cc4)C(C)(C)C)CC3)cc2)cc(C(=O)NCc2c(C)cc(C)[nH]c2=O)c1C)C1CCOCC1 [Compound 116, (2S,4R)-1-((S)-2-(2-(2-(4-((3′-(((4,6-dimethyl-2-oxo-1,2-dihydropyridin-3-yl)methyl)carbamoyl)-5′-(ethyl(tetrahydro-2H-pyran-4-yl)amino)-4′-methyl-[1,1′-biphenyl]-4-yl)methyl)piperazin-1-yl)ethoxy)acetamido)-3,3-dimethylbutanoyl)-4-hydroxy-N-((S)-1-(4-(4-methylthiazol-5-yl)phenyl)ethyl)pyrrolidine-2-carboxamide] | A (A = degradation more than 60%)
4 | CCN(c1cc(-c2ccc(CN3CCN(CCCCOCC(=O)N[C@H](C(=O)N4C[C@H](O)C[C@H]4C(=O)N[C@@H](C)c4ccc(-c5scnc5C)cc4)C(C)(C)C)CC3)cc2)cc(C(=O)NCc2c(C)cc(C)[nH]c2=O)c1C)C1CCOCC1 [Compound 117, (2S,4R)-1-((S)-2-(2-(4-(4-((3′-(((4,6-dimethyl-2-oxo-1,2-dihydropyridin-3-yl)methyl)carbamoyl)-5′-(ethyl(tetrahydro-2H-pyran-4-yl)amino)-4′-methyl-[1,1′-biphenyl]-4-yl)methyl)piperazin-1-yl)butoxy)acetamido)-3,3-dimethylbutanoyl)-4-hydroxy-N-((S)-1-(4-(4-methylthiazol-5-yl)phenyl)ethyl)pyrrolidine-2-carboxamide] | A (A = degradation more than 60%)
5 | CCN(c1cc(-c2ccc(CN3CCN(CCCOCC(=O)N[C@H](C(=O)N4C[C@H](O)C[C@H]4C(=O)N[C@@H](C)c4ccc(-c5scnc5C)cc4)C(C)(C)C)CC3)cc2)cc(C(=O)NCc2c(C)cc(C)[nH]c2=O)c1C)C1CCOCC1 [Compound 118, (2S,4R)-1-((S)-2-(2-(3-(4-((3′-(((4,6-dimethyl-2-oxo-1,2-dihydropyridin-3-yl)methyl)carbamoyl)-5′-(ethyl(tetrahydro-2H-pyran-4-yl)amino)-4′-methyl-[1,1′-biphenyl]-4-yl)methyl)piperazin-1-yl)propoxy)acetamido)-3,3-dimethylbutanoyl)-4-hydroxy-N-((S)-1-(4-(4-methylthiazol-5-yl)phenyl)ethyl)pyrrolidine-2-carboxamide] | A (A = degradation more than 60%)
6 | CCN(c1cc(-c2ccc(N3CCN(CCCOCCOCC(=O)N[C@H](C(=O)N4C[C@H](O)C[C@H]4C(=O)N[C@@H](C)c4ccc(-c5scnc5C)cc4)C(C)(C)C)CC3)cc2)cc(C(=O)NCc2c(C)cc(C)[nH]c2=O)c1C)C1CCOCC1 [Compound 119, (2S,4R)-1-((S)-2-(2-(2-(3-(4-(3′-(((4,6-dimethyl-2-oxo-1,2-dihydropyridin-3-yl)methyl)carbamoyl)-5′-(ethyl(tetrahydro-2H-pyran-4-yl)amino)-4′-methyl-[1,1′-biphenyl]-4-yl)piperazin-1-yl)propoxy)ethoxy)acetamido)-3,3-dimethylbutanoyl)-4-hydroxy-N-((S)-1-(4-(4-methylthiazol-5-yl)phenyl)ethyl)pyrrolidine-2-carboxamide] | B (B = degradation between 30% and 60%)
7 | (2R,3S,4R,5S)-3-(3-chloro-2- fluorophenyl)-4-(4-chloro-2- fluorophenyl)-4-cyano-N-[4- ({1-[4-(3-{[(4,6-dimethyl-2- oxo-1,2-dibydropyridin-3- yl)methyl]carbamoyl}-5- [ethyl(oxan-4-yl)amino]-4- methylphenyl)phenyl]-1,4,7,10- tetraoxadodecan-12- yl}carbamoyl)-2- methoxyphenyl]-5-(2,2- dimethylpropyl)pyrrolidine-2- carboxamide [Compound 24] | B (B = degradation between 30% and 60%)
8 | (2R,3S,4R,5S)-3-(3-chloro-2- fluorophenyl)-4-(4-chloro-2- fluorophenyl)-4-cyano-N-[4- ({1-[4-(3-{[(4,6-dimethyl-2- oxo-1,2-dihydropyridin-3- yl)methyl]carbamoyl}-5- [ethyl(oxan-4-yl)amino]-4- methylphenyl)phenyl- 1,4,7,10,13,16- hexaoxaoctadecan-18- yl}carbamoyl)-2- methoxyphenyl]-5-(2,2- dimethylpropyl)pyrrolidine-2- carboxamide [Compound 27] | B (B = degradation between 30% and 60%)
